Reference: patent US12414932B2, “Arsinothricin and methods of treating infections using arsinothricin” (priority 2018, dated 2025)
Read-outs that look alike come from different tables or passages of the source.

Key:
PpArsN1 = PpArsN1 (Pseudomonas putida, UniProt Q88LK7); details: for PpArsN1 Specific activity: Substrate 50 μM, 37° C.
[1] = target: glutamine synthetase (GS) from E. coli (Escherichia coli, UniProt P0A9C5); test: biochemical
E. coli AW3110 = test: microbe, parasite or virus in culture; format: cell-based, Escherichia coli; details: for IC50: read-out: concentration giving 50% inhibition
[2] = target: phosphinothricin N-acetyltransferase (SvPAT) (Streptomyces viridochromogenes, UniProt Q57146); test: N-acetyltransferase assay (DTNB) with SvPAT; format: biochemical, Streptomyces viridochromeogenes; details: as substrate of PAT (SvPAT)
P. putida Aars1,2 = test: microbe, parasite or virus in culture; format: cell-based, Pseudomonas putida; details: for IC50: read-out: concentration giving 50% inhibition
Mycobacterium bovis BCG = format: cell-based

Chain of PpArsN1 (Q88LK7 1-186): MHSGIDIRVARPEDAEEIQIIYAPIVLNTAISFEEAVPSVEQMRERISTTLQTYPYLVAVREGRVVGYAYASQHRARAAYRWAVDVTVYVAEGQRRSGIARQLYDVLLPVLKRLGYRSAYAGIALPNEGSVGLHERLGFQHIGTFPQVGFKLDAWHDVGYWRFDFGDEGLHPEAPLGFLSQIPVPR
Chain of phosphinothricin N-acetyltransferase (SvPAT) (Q57146 whole entry, looked up): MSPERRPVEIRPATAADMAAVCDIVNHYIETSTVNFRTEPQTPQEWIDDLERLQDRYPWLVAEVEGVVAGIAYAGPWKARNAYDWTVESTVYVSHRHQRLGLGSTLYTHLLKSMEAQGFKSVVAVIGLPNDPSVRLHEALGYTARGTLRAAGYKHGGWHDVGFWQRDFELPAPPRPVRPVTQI
Chain of glutamine synthetase (GS) from E. coli (P0A9C5 2-469): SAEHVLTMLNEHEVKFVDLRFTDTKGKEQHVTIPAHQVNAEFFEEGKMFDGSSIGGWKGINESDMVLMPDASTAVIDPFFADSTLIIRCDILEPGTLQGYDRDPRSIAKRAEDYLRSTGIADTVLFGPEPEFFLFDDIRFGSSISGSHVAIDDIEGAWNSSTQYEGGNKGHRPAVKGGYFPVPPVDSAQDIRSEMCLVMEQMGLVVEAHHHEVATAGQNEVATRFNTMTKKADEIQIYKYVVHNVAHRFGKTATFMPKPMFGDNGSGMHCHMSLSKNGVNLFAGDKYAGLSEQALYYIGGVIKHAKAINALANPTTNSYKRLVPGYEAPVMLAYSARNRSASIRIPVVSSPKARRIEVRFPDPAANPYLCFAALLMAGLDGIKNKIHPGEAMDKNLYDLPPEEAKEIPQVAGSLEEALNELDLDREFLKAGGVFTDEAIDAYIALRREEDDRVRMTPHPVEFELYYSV

Row | Compound | PpArsN1 Specific activity (PpArsN1) [nmol/s/mg] | Ki [1] [µM] | IC50 (E. coli AW3110; Escherichia coli, AW3110, 24 h) [µM] | Kcat [2] [s⁻¹] | IC50 (P. putida Aars1,2; Pseudomonas putida, 24 h) [µM] | affinity of PpArsN1 compared with PT (PpArsN1) [fold] | Kcat (PpArsN1; as substrate of PpArsN1) [s⁻¹] | Km (PpArsN1; as substrate of PpArsN1) [µM] | inhibitory effect on mycobacterial growth (Mycobacterium bovis BCG) | cytotoxicity in human monocytes (THP-1 cells) | concentration giving nearly complete inhibition (E. coli AW3110) [µM] | effectiveness as an antibiotic compared with PT (E. coli AW3110) | toxicity (growth inhibition) compared with As(III) and MAs(III) (E. coli AW3110) | IC50 (E. coli AW3110) [µM] | Km [2] [µM] | concentration giving nearly complete inhibition (P. putida Aars1,2) [µM] | effectiveness as an antibiotic compared with PT (P. putida Aars1,2) | IC50 (P. putida Aars1,2) [µM] | substrate quality for PpArsN1 (PpArsN1)
1 | CP(=O)(O)CCC(N)C(=O)O (racemic) [PT, phosphinothricin, reference compound] | 13.9 ± 1.9 | 0.4 ± 0.15 | 100 | 3.1 ± 0.0 | 100 |  |  |  |  |  |  |  |  |  |  |  |  |  | 
2 | C[As](=O)(O)CC[C@H](N)C(=O)O [AST, 2-amino-4-(hydroxymethylarsinoyl) butanoate] | 49.6 ± 0.8 |  |  | 2.3 ± 0.1 |  | 100 | 1.7 ± 0.2 | 11 ± 3 | comparable with MSO and much higher than PT | benign and much less toxic compared to inorganic arsenite | 20 | approximately 30 fold | considerably more inhibitory than inorganic As (III) and is similar to that of highly toxic trivalent methylarsenite (MAs(III)) | ~3 | 12 ± 2 | 20 | approximately 30 fold | ~3 | 
3 | methionine sulfoximine [MSO, reference compound] | 2.1 ± 0.1 |  |  |  |  |  |  |  |  |  |  |  |  |  |  |  |  |  | poor substrate
